Holding throughout (assay): NCI-60 cell line screen, 48 h
The subject of assay [1] is HCC-2998 colon.
In assay [2] the test system is HT29 colon.
Assay [3] relates to K-562 leukemia.
Assay [4] has as its system NCI-H23 lung.
The subject of assay [5] is OVCAR-4 ovarian.
Assay [6] deals with RPMI-8226 leukemia.
Assay [7] has as its system SK-MEL-28 melanoma.
Assay [8] relates to MDA-MB-435.
Assay [9] concerns NCI/ADR-RES ovarian.
Assay [10] relates to MDA-N.

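Each compound was tested at five concentrations against cells in 96-well plates for 48 hours. GI50 = concentration required for 50% inhibition of growth. Definition used: TGI = concentration required for complete inhibition of growth.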 Where only a bound is given, the exact number is not on record here.

Consider `N#Cc1c(-c2ccco2)cc(-c2ccc(NCc3nc4ccccc4[nH]3)cc2)nc1N`, for which the TGI in assay [1] stood at 54.7 µM; in [2], 91.7 µM; in assay [3] it was 71.7 µM; in [4] it was 48.8 µM; in assay [5], 66.3 µM; in assay [6], 62 µM. In [7], this compound registered a TGI of 67.5 µM.

In the case of `COc1ccc(N2C(=O)C3ON(C(C(N)=O)c4ccccc4)C(c4ccc(-c5ccccc5)cc4)C3C2=O)cc1` (stereo not drawn), the TGI in assay [2], in assay [3], in assay [8], in [4], in assay [9] and in assay [5] was > 50 µM throughout. The TGI in assay [6] and in [7] was > 50 µM each time.

`O=C1CCC[C@]2(CCC[C@@H](O)C2)N1`: the TGI in assay [1], in assay [2], in [3], in assay [10], in assay [9] and in [5] was > 100 µM in each case.

On to `O=C1C(/C=C/c2ccc(Cl)cc2)=NNC2N1N=C1NC(=O)C3(NN12)c1ccccc1-c1ccccc13` (stereo not drawn), for which the TGI in assay [1], in assay [2], in assay [3], in assay [8], in assay [4] and in [9] was > 100 µM each time. Also, the TGI in [5] and in assay [7] was > 100 µM throughout.

Take `O=C(CC(=O)N1N=C(N2CCCCC2)CC1c1ccccc1)Nc1ccc(Cl)cc1` (stereo not drawn): the TGI in assay [1], in [2], in assay [8], in assay [10], in assay [4] and in assay [9] was > 100 µM throughout. Also, the TGI in assay [5] and in assay [7] was > 100 µM in each case.

`COC(=O)C(CCCC1(c2ccccc2)OCCO1)C(C)=O` (stereo not drawn): the TGI in assay [1], in [2], in assay [3], in [4], in [5] and in assay [7] was > 100 µM each time.

For `COc1cc(CCCOC(=O)/C=C/c2ccc(O)c(O)c2)cc(O)c1O`, the TGI was > 100 µM in [1]; 98.7 µM in [2]; > 100 µM in [3]; > 100 µM in [8]; 53.7 µM in assay [10]; > 100 µM in assay [4]. In addition, the TGI in assay [5], in assay [6] and in assay [7] was > 100 µM in each case.

In the case of `COc1cccc(NC(=S)Nn2c(C)nc3ccccc3c2=O)c1`, the TGI in assay [2], in assay [3], in assay [4], in assay [5], in assay [6] and in assay [7] was > 100 µM each time.

Turning to `CCCCc1c2c(nc3c1CCCC3O)/C(=C/c1ccccc1)CCC2` (stereo not drawn), the TGI in assay [1] was 24.3 µM; in assay [2], 46.1 µM; in assay [3] it was 40.5 µM; in assay [4], > 100 µM; in [5] it was > 100 µM; in assay [6], 46.2 µM. In [7], this compound registered a TGI of 94.3 µM.

Turning to `CN(C)c1ccc(/C=C(\C#N)C(N)=C(C#N)C#N)cc1`, the TGI in assay [1], in assay [2], in [3], in assay [8], in assay [10] and in [4] was > 100 µM in each case. In addition, the TGI in assay [9], in assay [5] and in [7] was > 100 µM each time.

For the compound `CCCc1c(OC)c(=O)c2c(OC)cc(OC)c3c4c(OC)cc(OC)c5c(=O)c(OC)c(CCC)c(c1c23)c54`, the TGI came to 38.7 µM in assay [1]; 24.1 µM in assay [2]; 29.6 µM in assay [8]; 32.9 µM in assay [10]; 29.5 µM in [4]; 47.4 µM in assay [9]. In addition, the results for the TGI in assay [5] and in assay [7] were 28.4 µM and 26.2 µM, respectively.

For `COCC1OC(OC2C3=C(C(C)C)CCC3(C)/C=C3\C(CCC3(O)COC)C(C)C2O)C(O)C2OC3OC12OC3(C)C1CO1` (stereo not drawn), the TGI in [1], in assay [2], in [3], in assay [8], in [10] and in assay [4] was > 100 µM each time. The TGI in assay [5], in assay [6] and in assay [7] was > 100 µM in each case.

Consider `COc1ccc2nc3ccc(OC)cc3c(S(=O)(=O)Cc3ccc([N+](=O)[O-])cc3)c2c1`, for which the TGI in assay [1], in assay [2], in assay [3], in assay [8], in assay [10] and in [4] was > 100 µM each time. Besides, the TGI in assay [9], in [5] and in assay [7] was > 100 µM each time.

Turning to `COCC1CCCN1c1ccc(/C=C(/C#N)C(N)=S)cc1` (stereo not drawn), the GI50 in assay [1] was > 100 µM; in assay [2], > 100 µM; in assay [3], 30.2 µM; in assay [8], 15 µM; in assay [4], > 100 µM; in assay [9] it was > 100 µM. Further, the GI50 in assay [5] and in assay [7] was > 100 µM in each case. Besides, the TGI in assay [1], in assay [2], in assay [3], in assay [8], in [4] and in assay [9] was > 100 µM each time. Also, the TGI in [5] and in assay [7] was > 100 µM in each case.

Regarding `Nc1nc(SCCNC(=O)CCc2ccc(O)cc2)nc2c1ncn2C1OC(CO)C(O)C1O` (stereo not drawn), the TGI in assay [1], in [2], in assay [3], in [4], in assay [5] and in assay [6] was > 203 µM each time. In addition, in [7], the TGI is > 203 µM.

Values taken from PubChem BioAssay (NCI).
